Laboratory results published in ChEMBL document CHEMBL1649419, “Design and synthesis of pyrimidinone and pyrimidinedione inhibitors of dipeptidyl peptidase IV” (J Med Chem, 2011).

Key:
[1] = Half life in rat liver microsomes by LC/MS analysis; type: ADME, Microsome
[2] = Half life in human liver microsomes by LC/MS analysis; type: ADME, Microsome
[3] = Half life in dog at 1.8 mg/kg, po; type: ADME, organism-based, Canis lupus familiaris; parameters: dose 1.8 mg/kg, route oral; conditions: in vivo
[4] = Half life in rat at 1.4 mg/kg, iv; type: ADME, organism-based; parameters: dose 1.4 mg/kg, route intravenous; conditions: in vivo
[5] = AUC in rat at 14 mg/kg, po; type: ADME, organism-based; parameters: dose 14 mg/kg, route oral; conditions: plasma
[6] = Oral bioavailability in rat at 14 mg/kg; type: ADME, organism-based; conditions: in vivo
[7] = Half life in dog at 0.52 mg/kg, iv; type: ADME, organism-based, Canis lupus familiaris; parameters: dose 0.52 mg/kg, route intravenous; conditions: in vivo
[8] = Oral bioavailability in dog at 1.8 mg/kg; type: ADME, organism-based, Canis lupus familiaris; conditions: in vivo
[9] = AUC in dog at 1.8 mg/kg, po; type: ADME, organism-based, Canis lupus familiaris; parameters: dose 1.8 mg/kg, route oral; conditions: plasma
[10] = Half life in rat at 14 mg/kg, po; type: ADME, organism-based; parameters: dose 14 mg/kg, route oral; conditions: in vivo
[11] = Volume of distribution at steady state in dog at 0.52 mg/kg, iv and 1.8 mg/kg, po; type: ADME, organism-based, Canis lupus familiaris; conditions: in vivo, read-out: Vdss
[12] = Volume of distribution at steady state in rat at 1.4 mg/kg, iv and 14 mg/kg, po; type: ADME, organism-based; conditions: in vivo, read-out: Vdss
[13] = Volume of distribution at steady state in rat at 0.71 mg/kg, iv and 14 mg/kg, po; type: ADME, organism-based; conditions: in vivo, read-out: Vdss
[14] = Half life in rat at 0.71 mg/kg, iv; type: ADME, organism-based; parameters: dose 0.71 mg/kg, route intravenous; conditions: in vivo
[15] = Oral bioavailability in dog at 2.7 mg/kg; type: ADME, organism-based, Canis lupus familiaris; conditions: in vivo
[16] = Half life in dog at 2.7 mg/kg, po; type: ADME, organism-based, Canis lupus familiaris; parameters: dose 2.7 mg/kg, route oral; conditions: in vivo
[17] = Volume of distribution at steady state in dog at 0.85 mg/kg, iv and 2.7 mg/kg, po; type: ADME, organism-based, Canis lupus familiaris; conditions: in vivo, read-out: Vdss
[18] = AUC in dog at 2.7 mg/kg, po; type: ADME, organism-based, Canis lupus familiaris; parameters: dose 2.7 mg/kg, route oral; conditions: plasma
[19] = Half life in dog at 0.85 mg/kg, iv; type: ADME, organism-based, Canis lupus familiaris; parameters: dose 0.85 mg/kg, route intravenous; conditions: in vivo
[20] = AUC in dog at 2.5 mg/kg, po; type: ADME, organism-based, Canis lupus familiaris; parameters: dose 2.5 mg/kg, route oral; conditions: plasma
[21] = AUC in rat at 11 mg/kg, po; type: ADME, organism-based; parameters: dose 11 mg/kg, route oral; conditions: plasma
[22] = Half life in rat at 11 mg/kg, po; type: ADME, organism-based; parameters: dose 11 mg/kg, route oral; conditions: in vivo
[23] = Half life in rat at 0.8 mg/kg, iv; type: ADME, organism-based; parameters: dose 0.8 mg/kg, route intravenous; conditions: in vivo
[24] = Volume of distribution at steady state in dog at 0.8 mg/kg, iv and 2.5 mg/kg, po; type: ADME, organism-based, Canis lupus familiaris; conditions: in vivo, read-out: Vdss
[25] = Half life in dog at 2.5 mg/kg, po; type: ADME, organism-based, Canis lupus familiaris; parameters: dose 2.5 mg/kg, route oral; conditions: in vivo
[26] = Oral bioavailability in dog at 2.5 mg/kg; type: ADME, organism-based, Canis lupus familiaris; conditions: in vivo
[27] = Half life in dog at 0.8 mg/kg, iv; type: ADME, organism-based, Canis lupus familiaris; parameters: dose 0.8 mg/kg, route intravenous; conditions: in vivo
[28] = Oral bioavailability in rat at 11 mg/kg; type: ADME, organism-based; conditions: in vivo
[29] = Volume of distribution at steady state in rat at 0.8 mg/kg, iv and 11 mg/kg, po; type: ADME, organism-based; conditions: in vivo, read-out: Vdss
[30] = Oral bioavailability in dog at 3 mg/kg; type: ADME, organism-based, Canis lupus familiaris; conditions: in vivo
[31] = Half life in rat at 2 mg/kg, iv; type: ADME, organism-based; parameters: dose 2 mg/kg, route intravenous; conditions: in vivo
[32] = AUC in dog at 3 mg/kg, po; type: ADME, organism-based, Canis lupus familiaris; parameters: dose 3 mg/kg, route oral; conditions: plasma
[33] = Half life in dog at 1 mg/kg, iv; type: ADME, organism-based, Canis lupus familiaris; parameters: dose 1 mg/kg, route intravenous; conditions: in vivo
[34] = AUC in rat at 10 mg/kg, po; type: ADME, organism-based; parameters: dose 10 mg/kg, route oral; conditions: plasma
[35] = Volume of distribution at steady state in dog at 1 mg/kg, iv and 3 mg/kg, po; type: ADME, organism-based, Canis lupus familiaris; conditions: in vivo, read-out: Vdss
[36] = Oral bioavailability in rat at 10 mg/kg; type: ADME, organism-based; conditions: in vivo
[37] = Volume of distribution at steady state in rat at 2 mg/kg, iv and 10 mg/kg, po; type: ADME, organism-based; conditions: in vivo, read-out: Vdss
[38] = Half life in dog at 3 mg/kg, po; type: ADME, organism-based, Canis lupus familiaris; parameters: dose 3 mg/kg, route oral; conditions: in vivo
[39] = Half life in rat at 10 mg/kg, po; type: ADME, organism-based; parameters: dose 10 mg/kg, route oral; conditions: in vivo
[40] = Half life in monkey at 1.6 mg/kg, iv; type: ADME, organism-based, Macaca mulatta; parameters: dose 1.6 mg/kg, route intravenous; conditions: rhesus monkey, in vivo
[41] = Half life in monkey at 2.1 mg/kg, po; type: ADME, organism-based, Macaca mulatta; parameters: dose 2.1 mg/kg, route oral; conditions: rhesus monkey, in vivo
[42] = Volume of distribution at steady state in monkey at 1.6 mg/kg, iv and 2.1 mg/kg, po; type: ADME, organism-based, Macaca mulatta; conditions: rhesus monkey, in vivo, read-out: Vdss
[43] = Oral bioavailability in monkey at 2.1 mg/kg; type: ADME, organism-based, Macaca mulatta; conditions: rhesus monkey, in vivo
[44] = AUC in monkey at 2.1 mg/kg, po; type: ADME, organism-based, Macaca mulatta; parameters: dose 2.1 mg/kg, route oral; conditions: rhesus monkey, plasma

## N#Cc1ccsc1Cn1c(N2CCC[C@@H](N)C2)ncc(Br)c1=O
[1]
  half-life: 0.25 h
[2]
  half-life: > 3.33 h

## N#Cc1ccc(F)cc1Cn1c(N2CCC[C@@H](N)C2)ncc(F)c1=O
[1]
  half-life: > 3.33 h
[2]
  half-life: > 3.33 h

## N#Cc1ccc(F)cc1Cn1c(N2CCC[C@@H](N)C2)ncc(Cl)c1=O
[1]
  half-life: 2.03 h
[2]
  half-life: > 3.33 h

## N#Cc1ccc(F)cc1Cn1c(N2CCC[C@@H](N)C2)ncc(Br)c1=O
[1]
  half-life: 0.683 h
[2]
  half-life: > 3.33 h

## N#Cc1ccccc1Cn1c(N2CCC[C@@H](N)C2)cc(=O)[nH]c1=O
[1]
  half-life: > 3.33 h
[2]
  half-life: 2.15 h

## Cn1c(=O)c(Cl)c(N2CCC[C@@H](N)C2)n(Cc2ccccc2C#N)c1=O
[1]
  half-life: 0.933 h
[2]
  half-life: 2.73 h

## CCn1c(=O)cc(N2CCC[C@@H](N)C2)n(Cc2ccccc2C#N)c1=O
[1]
  half-life: 0.533 h
[2]
  half-life: > 3.33 h

## N[C@@H]1CCCN(c2cc(=O)[nH]c(=O)n2Cc2ccccc2Br)C1
[1]
  half-life: > 1.97 h
[2]
  half-life: > 3.33 h

## Cn1c(=O)cc(N2CCC[C@@H](N)C2)n(Cc2ccccc2Br)c1=O
[1]
  half-life: 1.37 h
[2]
  half-life: > 3.33 h

## Cn1c(=O)cc(N2CCC[C@@H](N)C2)n(Cc2cc(F)ccc2Br)c1=O
[1]
  half-life: 0.267 h
[2]
  half-life: 1.5 h

## Cn1c(=O)cc(N2CCC[C@@H](N)C2)n(Cc2cc(F)ccc2Cl)c1=O
[1]
  half-life: 0.883 h
[2]
  half-life: > 3.33 h

## Cn1c(=O)cc(N2CCC[C@@H](N)C2)n(Cc2ccc(F)cc2Cl)c1=O
[1]
  half-life: 1.12 h
[2]
  half-life: > 3.33 h

## Cn1c(=O)cc(N2CCC[C@@H](N)C2)n(Cc2cc(Cl)ccc2Cl)c1=O
[1]
  half-life: 0.167 h
[2]
  half-life: 2.75 h

## Cn1c(=O)cc(N2CCC[C@@](C)(N)C2)n(Cc2cc(F)ccc2C#N)c1=O
[1]
  half-life: 0.583 h
[2]
  half-life: > 3.33 h

## N#Cc1ccccc1Cn1c(N2CCC[C@@H](N)C2)nccc1=O.O=C(O)C(F)(F)F
[3]
  half-life: 2.8 h
[4]
  half-life: 0.74 h
[5]
  AUC: 1200 ng·h/mL
[6]
  bioavailability: 54%
[7]
  half-life: 2.4 h
[8]
  bioavailability: 78%
[9]
  AUC: 1400 ng·h/mL
[10]
  half-life: 1 h
[11]
  Vd: 3 L/kg
[12]
  Vd: 4.8 L/kg

## N#Cc1ccccc1Cn1c(N2CCC[C@@H](N)C2)ncc(F)c1=O.O=C(O)C(F)(F)F
[5]
  AUC: 3800 ng·h/mL
[6]
  bioavailability: 73%
[13]
  Vd: 4.2 L/kg
[10]
  half-life: 1.5 h
[14]
  half-life: 1.5 h

## Cl.N#Cc1ccccc1Cn1c(N2CCC[C@@H](N)C2)ncc(F)c1=O
[15]
  bioavailability: 80%
[16]
  half-life: 4.5 h
[17]
  Vd: 3.5 L/kg
[18]
  AUC: 3200 ng·h/mL
[19]
  half-life: 4.6 h

## Cl.N#Cc1ccccc1Cn1c(N2CCC[C@@H](N)C2)ncc(Cl)c1=O
[20]
  AUC: 8400 ng·h/mL
[21]
  AUC: 2800 ng·h/mL
[22]
  half-life: 1.3 h
[23]
  half-life: 1.3 h
[24]
  Vd: 1.9 L/kg
[25]
  half-life: 4.8 h
[26]
  bioavailability: 90%
[27]
  half-life: 5.2 h
[28]
  bioavailability: 65%
[29]
  Vd: 3 L/kg

## Cl.N#Cc1ccccc1Cn1c(N2CCC[C@@H](N)C2)ncc(Br)c1=O
[30]
  bioavailability: 105%
[31]
  half-life: 1.1 h
[32]
  AUC: 14700 ng·h/mL
[33]
  half-life: 5.3 h
[34]
  AUC: 2400 ng·h/mL
[35]
  Vd: 1.7 L/kg
[36]
  bioavailability: 74%
[37]
  Vd: 3.2 L/kg
[38]
  half-life: 6.1 h
[39]
  half-life: 1.7 h

## Cn1c(=O)cc(N2CCC[C@@H](N)C2)n(Cc2ccccc2C#N)c1=O [ALOGLIPTIN]
[1]
  half-life: 3.33 h
[2]
  half-life: 2.02 h

## N#Cc1ccccc1Cn1c(N2CCC[C@@H](N)C2)ncc(F)c1=O.O=C(O)C(O)C(O)C(=O)O [TARTARATE]
[40]
  half-life: 4 h
[41]
  half-life: 5.7 h
[42]
  Vd: 3.2 L/kg
[43]
  bioavailability: 110%
[44]
  AUC: 3100 ng·h/mL

## Cn1c(=O)cc(N2CCC[C@@H](N)C2)n(Cc2cc(F)ccc2C#N)c1=O [TRELAGLIPTIN]
[1]
  half-life: > 3.33 h
[2]
  half-life: > 3.33 h
